Assay results taken from patent US20170232083A1, “METHODS OF DIAGNOSIS AND TREATMENT OF CELIAC DISEASE IN CHILDREN” (priority 2014, published 2017).

System: PBMC (polyclonal gluten-specific T cells) of paediatric and adult CD patients
Assay: IFN-γ ELISpot of PBMC after 3 day oral wheat challenge (SFU, % of maximal peptide response, dominance scores, EC50; Examples 5-6)
Type: cell-based, human
Conditions: for IFN-γ ELISpot response: after oral wheat challenge; for Cross-reactive T cell response: following wheat challenge
[1] = patient G, 11-17 yrs, cut-off 10 SFU
[2] = patient H, 11-17 yrs, cut-off 10 SFU
[3] = patient ID not given, 11-17 yrs, cut-off 10 SFU
[4] = patient P, 11-17 yrs, cut-off 21.6 SFU
[5] = patient Q, 11-17 yrs, cut-off 10 SFU
[6] = patient U, H, 11-17 yrs, cut-off 10 SFU
[7] = patient V, 6-10 yrs, cut-off 10 SFU
[8] = patient Y, 6-10 yrs, cut-off 10 SFU
[9] = patient eleven, 6-10 yrs, cut-off 10 SFU
[10] = patient four, 3-5yrs, cut-off 10 SFU
[11] = patient seven, 6-10 yrs, cut-off 10.5 SFU
[12] = patient ten, 3-5yrs, cut-off 10 SFU
[13] = patient three, 6-10 yrs, cut-off 10.5 SFU
[14] = patient two, 3-5yrs, cut-off 10 SFU

Question: Which results are given for YEVIRSLVLRTLPN?
Answer: IFN-γ ELISpot response (patient A, 11-17 yrs, cut-off 10 SFU): 20 SFU; Significant response as percentage of maximal peptide SFU (patient A, max peptide 20 SFU): + (>70% = +); IFN-γ ELISpot response (patient E, H, 11-17 yrs, cut-off 10 SFU): 1 SFU; IFN-γ ELISpot response (patient F, 11-17 yrs, cut-off 10 SFU): 2 SFU; IFN-γ ELISpot response [1]: 1 SFU; IFN-γ ELISpot response (patient H (HLA-DQ2.5 homozygote), 3-5yrs, cut-off 10 SFU): 0 SFU; IFN-γ ELISpot response [2]: 3 SFU; IFN-γ ELISpot response [3]: 1 SFU; IFN-γ ELISpot response (patient N, 3-5yrs, cut-off 10 SFU): 2 SFU; IFN-γ ELISpot response [4]: 49 SFU; Significant response as percentage of maximal peptide SFU (patient P, max peptide 64 SFU): + (>70% = +); IFN-γ ELISpot response [5]: 2 SFU; IFN-γ ELISpot response [6]: 3 SFU; IFN-γ ELISpot response [7]: 3 SFU; Significant response as percentage of maximal peptide SFU (patient W, max peptide 30 SFU): + (>70% = +); IFN-γ ELISpot response [8]: 1 SFU; IFN-γ ELISpot response [9]: 1 SFU; IFN-γ ELISpot response [10]: 1 SFU; IFN-γ ELISpot response [11]: 10 SFU; IFN-γ ELISpot response [12]: 3 SFU; IFN-γ ELISpot response [13]: 4 SFU; IFN-γ ELISpot response (patient twelve, 11-17 yrs, cut-off 10 SFU): 0 SFU; IFN-γ ELISpot response [14]: 1 SFU

Question: What does the source list for PQQPQQSFPQQQQPA?
Answer: IFN-γ ELISpot response [1]: 11 SFU; Significant response as percentage of maximal peptide SFU (patient G, max peptide 15 SFU): + (>70% = +); IFN-γ ELISpot response [2]: 1 SFU; IFN-γ ELISpot response [3]: 3 SFU; Significant response as percentage of maximal peptide SFU (patient K, max peptide 53 SFU): ′′ (21-40% = ′′); IFN-γ ELISpot response [4]: 4 SFU; IFN-γ ELISpot response [5]: 1 SFU; IFN-γ ELISpot response [6]: 2 SFU; IFN-γ ELISpot response [7]: 10 SFU; Significant response as percentage of maximal peptide SFU (patient V, max peptide 35 SFU): ′′ (21-40% = ′′); IFN-γ ELISpot response [8]: 3 SFU; IFN-γ ELISpot response [9]: 0 SFU; IFN-γ ELISpot response [10]: 0 SFU; IFN-γ ELISpot response [11]: 10 SFU; IFN-γ ELISpot response [12]: 7 SFU; IFN-γ ELISpot response [13]: 1 SFU; IFN-γ ELISpot response [14]: 0 SFU

Question: What does the source list for QEFPQPEQPFPQQ?
Answer: Cross-reactive T cell response (subject A, 11-17yrs): 4 SFU; Significant response as a percentage of maximal peptide SFU (subject D, 11-17yrs): ′′′ (41-70% = ′′′); Cross-reactive T cell response (subject D, 11-17yrs): 15 SFU; Significant response as a percentage of maximal peptide SFU (subject E, 11-17yrs): ′ (11-20% = ′); Cross-reactive T cell response (subject E, 11-17yrs): 30 SFU; Significant response as a percentage of maximal peptide SFU (subject F, 11-17yrs): ′′ (21-40% = ′′); Cross-reactive T cell response (subject F, 11-17yrs): 38 SFU; Cross-reactive T cell response (subject G, 11-17yrs): 4 SFU; Cross-reactive T cell response (subject H): 1 SFU; Cross-reactive T cell response (subject I (3-5yrs/6-10yrs part)): 8 SFU; Significant response as a percentage of maximal peptide SFU (subject J): ′′′ (41-70% = ′′′); Cross-reactive T cell response (subject J (3-5yrs/6-10yrs part)): 93 SFU; Significant response as a percentage of maximal peptide SFU (subject K): ′′ (21-40% = ′′); Cross-reactive T cell response (subject K (3-5yrs/6-10yrs part)): 21 SFU; Cross-reactive T cell response (subject P, 11-17yrs): 7 SFU; Significant response as a percentage of maximal peptide SFU (subject Q, 11-17yrs): ′′′ (41-70% = ′′′); Cross-reactive T cell response (subject Q, 11-17yrs): 44 SFU; Significant response as a percentage of maximal peptide SFU (subject T, 11-17yrs): + (>70% = +); Cross-reactive T cell response (subject T, 11-17yrs): 67 SFU; Significant response as a percentage of maximal peptide SFU (subject U, 11-17yrs): ′′ (21-40% = ′′); Cross-reactive T cell response (subject U, 11-17yrs): 23 SFU; Significant response as a percentage of maximal peptide SFU (subject V): ′′ (21-40% = ′′); Cross-reactive T cell response (subject V (3-5yrs/6-10yrs part)): 11 SFU; Cross-reactive T cell response (subject W (3-5yrs/6-10yrs part)): 3 SFU; Cross-reactive T cell response (subject Y (3-5yrs/6-10yrs part)): 2 SFU; Significant response as a percentage of maximal peptide SFU (subject five): + (>70% = +); Cross-reactive T cell response (subject five (3-5yrs/6-10yrs part)): 36 SFU; Cross-reactive T cell response (subject nine, 11-17yrs): 1 SFU; Cross-reactive T cell response (subject seven (3-5yrs/6-10yrs part)): 2 SFU; Cross-reactive T cell response (subject six (3-5yrs/6-10yrs part)): 6 SFU; Cross-reactive T cell response (subject ten (3-5yrs/6-10yrs part)): 8 SFU; Significant response as a percentage of maximal peptide SFU (subject two): ′′′ (41-70% = ′′′); Cross-reactive T cell response (subject two (3-5yrs/6-10yrs part)): 30 SFU
